Results on five molecules are retold here after ChEMBL document CHEMBL1777766, “Design, synthesis and in vitro antibacterial activity of 7-(4-alkoxyimino-3-aminomethylpiperidin-1-yl)fluoroquinolone derivatives” (Bioorg Med Chem Lett, 2011).

≈ marks a conversion by molar mass, not a printed value.

For series [1], the system named is Staphylococcus aureus. In words: Antibacterial activity against methicillin-sensitive Staphylococcus aureus 08-49. In kind it is functional.
In series [2] the test system is Staphylococcus aureus. In words: Antibacterial activity against Staphylococcus aureus ATCC 13709. The series is classed as functional.
Series [3] has as its system Staphylococcus aureus. In words: Antibacterial activity against methicillin-resistant Staphylococcus aureus 08-52. The series is classed as functional.
In series [4] the test system is Staphylococcus epidermidis. In words: Antibacterial activity against Staphylococcus epidermidis ATCC 12228. In kind it is functional.
For series [5], the system named is Staphylococcus epidermidis. In words: Antibacterial activity against methicillin-sensitive Staphylococcus epidermidis 08-17. In kind it is functional.
Series [6] has as its system Staphylococcus epidermidis. In words: Antibacterial activity against methicillin-resistant Staphylococcus epidermidis 08-18. In kind it is functional.
Series [7] has as its system Streptococcus pneumoniae. In words: Antibacterial activity against Streptococcus pneumoniae ATCC 6301. The series is classed as functional.
Series [8] deals with Streptococcus pneumoniae. In words: Antibacterial activity against penicillin-resistant Streptococcus pneumoniae 08-2. The series is classed as functional.
The subject of series [9] is Enterococcus faecalis. In words: Antibacterial activity against Enterococcus faecalis ATCC 51299. The series is classed as functional.
For series [10], the system named is Enterococcus faecalis. In words: Antibacterial activity against vancomycin-resistant Enterococcus faecalis EFL1004. In kind it is functional.
Another series relates to Streptococcus pyogenes. In words: Antibacterial activity against Streptococcus pyogenes 556. The series is classed as functional.
In series [11] the test system is Escherichia coli. In words: Antibacterial activity against Escherichia coli ATCC 25922. The series is classed as functional.
For series [12], the system named is Escherichia coli. In words: Antibacterial activity against Extended spectrum beta-lactamase producing Escherichia coli 08-5. The series is classed as functional.
Another series concerns Klebsiella pneumoniae. In words: Antibacterial activity against Klebsiella pneumoniae ATCC 700603. In kind it is functional.
In another series the test system is Pseudomonas aeruginosa. In words: Antibacterial activity against Pseudomonas aeruginosa 17. In kind it is functional.
Another series concerns Shigella sonnei. In words: Antibacterial activity against Shigella sonnei 51592. The series is classed as functional.
Another series relates to Salmonella typhi. In words: Antibacterial activity against Bacillus typhi 50035. The series is classed as functional, Salmonella enterica subsp. enterica serovar Typhi. The settings on record: Salmonella enterica.
A further series deals with Enterobacter cloacae. In words: Antibacterial activity against Enterobacter cloacae 45301. In kind it is functional.
Series [13] relates to Acinetobacter calcoaceticus. In words: Antibacterial activity against Acinetobacter calcoaceticus 25001. In kind it is functional.
The test system of a further series is Klebsiella aerogenes. In words: Antibacterial activity against Enterobacter aerogenes 45102. In kind it is functional.
A further series deals with Serratia marcescens. In words: Antibacterial activity against Serratia marcescens 41002. In kind it is functional.
The next series concerns Morganella morganii. In words: Antibacterial activity against Morganella morganii 49086. In kind it is functional.
A further series concerns Providencia rettgeri. In words: Antibacterial activity against Proteus rettgeri 49006. In kind it is functional.
For a further series, the system named is Proteus vulgaris. In words: Antibacterial activity against Proteus vulgaris 56. In kind it is functional.
Series [14] is described as follows: Cytotoxicity against african green monkey Vero cells after 24 hrs. The series is classed as cell-based. The settings on record: chlorocebus sabaeus.

As to `CCO/N=C1\CCN(c2c(F)cc3c(=O)c(C(=O)O)cn(CCF)c3c2F)CC1CN` (racemic), the MIC – broadly, the least concentration at which growth counts as inhibited – with Staphylococcus aureus [1] worked out at 8 mg/L (≈ 18.2 µM); against Staphylococcus aureus [2], 8 mg/L (≈ 18.2 µM); against Staphylococcus aureus [3] it was 16 mg/L (≈ 36.3 µM); in series [4] it was 16 mg/L (≈ 36.3 µM); in series [5], 64 mg/L (≈ 145 µM); in series [6] it was 8 mg/L (≈ 18.2 µM). Besides, the MIC against Streptococcus pneumoniae [7] was 64 mg/L (≈ 145 µM); in the series on Streptococcus pneumoniae [8], 32 mg/L (≈ 72.7 µM); against Enterococcus faecalis [9], 16 mg/L (≈ 36.3 µM); against Enterococcus faecalis [10], 64 mg/L (≈ 145 µM); against Streptococcus pyogenes, 64 mg/L (≈ 145 µM); in the series on Escherichia coli [11] it was 8 mg/L (≈ 18.2 µM). In addition, the MIC in the series on Escherichia coli [12] was more than 128 mg/L; in the series with Klebsiella pneumoniae, more than 128 mg/L; against Pseudomonas aeruginosa, 64 mg/L (≈ 145 µM); against Shigella sonnei, 8 mg/L (≈ 18.2 µM); with Salmonella typhi it was 8 mg/L (≈ 18.2 µM); against Enterobacter cloacae, 16 mg/L (≈ 36.3 µM). Also, the minimal inhibitory concentration (MIC) in series [13] is 128 mg/L (≈ 291 µM); against Klebsiella aerogenes it was 16 mg/L (≈ 36.3 µM); in the series on Serratia marcescens, 16 mg/L (≈ 36.3 µM); in the series with Morganella morganii, 8 mg/L (≈ 18.2 µM); with Providencia rettgeri, 32 mg/L (≈ 72.7 µM); against Proteus vulgaris, 16 mg/L (≈ 36.3 µM). In addition, in [14], the CC50 (commonly the concentration that lowers cell viability or growth by half) at 24 h was more than 500 mg/L.

Turning to `CO/N=C1\CN(c2nc3c(cc2F)c(=O)c(C(=O)O)cn3C2CC2)CC1CN` (centres undefined) [GEMIFLOXACIN], the minimum inhibitory concentration (MIC) against Staphylococcus aureus [1] was not above 0.03 mg/L; in the series with Staphylococcus aureus [2], not above 0.03 mg/L; in the series with Staphylococcus aureus [3], 0.5 mg/L (≈ 1.28 µM); in series [4] it was 0.06 mg/L (≈ 0.154 µM); in [5], 0.06 mg/L (≈ 0.154 µM); in series [6] it was not above 0.03 mg/L. Besides, the MIC in the series on Streptococcus pneumoniae [7] was 0.5 mg/L (≈ 1.28 µM); with Streptococcus pneumoniae [8] it was not above 0.03 mg/L; in the series with Enterococcus faecalis [9], 0.06 mg/L (≈ 0.154 µM); in the series on Enterococcus faecalis [10] it was 0.5 mg/L (≈ 1.28 µM); against Streptococcus pyogenes, 0.125 mg/L (≈ 0.321 µM); against Escherichia coli [11], not above 0.03 mg/L. For the same molecule, the MIC with Escherichia coli [12] is 32 mg/L (≈ 82.2 µM); against Klebsiella pneumoniae it was 0.5 mg/L (≈ 1.28 µM); in the series with Pseudomonas aeruginosa, 32 mg/L (≈ 82.2 µM); with Shigella sonnei, not above 0.03 mg/L; against Salmonella typhi, not above 0.03 mg/L; in the series on Enterobacter cloacae, not above 0.03 mg/L. Besides, the MIC in series [13] was 0.125 mg/L (≈ 0.321 µM); in the series on Klebsiella aerogenes, not above 0.03 mg/L; in the series on Serratia marcescens, 0.125 mg/L (≈ 0.321 µM); in the series with Morganella morganii it was 0.06 mg/L (≈ 0.154 µM); in the series with Providencia rettgeri it was 0.06 mg/L (≈ 0.154 µM); with Proteus vulgaris, not above 0.03 mg/L.

In the case of `CO/N=C1\CCN(c2c(F)cc3c(=O)c(C(=O)O)cn(CCF)c3c2F)CC1CN` (racemic), the MIC against Staphylococcus aureus [1] is 2 mg/L (≈ 4.69 µM); in the series on Staphylococcus aureus [2], 4 mg/L (≈ 9.38 µM); against Staphylococcus aureus [3], 8 mg/L (≈ 18.8 µM); in [4] it was 8 mg/L (≈ 18.8 µM); in [5], 32 mg/L (≈ 75 µM); in series [6] it was 8 mg/L (≈ 18.8 µM). The MIC with Streptococcus pneumoniae [7] was 32 mg/L (≈ 75 µM); with Streptococcus pneumoniae [8], 16 mg/L (≈ 37.5 µM); in the series with Enterococcus faecalis [9], 8 mg/L (≈ 18.8 µM); against Enterococcus faecalis [10], 16 mg/L (≈ 37.5 µM); in the series on Streptococcus pyogenes it was 32 mg/L (≈ 75 µM); against Escherichia coli [11] it was 8 mg/L (≈ 18.8 µM). For the same molecule, the minimum inhibitory concentration (MIC) in the series on Escherichia coli [12] was more than 128 mg/L; with Klebsiella pneumoniae, 128 mg/L (≈ 300 µM); with Pseudomonas aeruginosa, 32 mg/L (≈ 75 µM); in the series on Shigella sonnei, 32 mg/L (≈ 75 µM); with Salmonella typhi, 8 mg/L (≈ 18.8 µM); against Enterobacter cloacae, more than 128 mg/L. The MIC in series [13] was 128 mg/L (≈ 300 µM); in the series on Klebsiella aerogenes, 32 mg/L (≈ 75 µM); in the series with Serratia marcescens, 16 mg/L (≈ 37.5 µM); in the series on Morganella morganii it was 16 mg/L (≈ 37.5 µM); against Providencia rettgeri it was 16 mg/L (≈ 37.5 µM); in the series with Proteus vulgaris it was 16 mg/L (≈ 37.5 µM).

Turning to `CO/N=C1\CCN(c2c(F)cc3c(=O)c(C(=O)O)cn(C4CC4)c3c2F)CC1CN` (racemic), the minimum inhibitory concentration (MIC) against Staphylococcus aureus [1] was 0.5 mg/L (≈ 1.19 µM); in the series on Staphylococcus aureus [2], 0.5 mg/L (≈ 1.19 µM); with Staphylococcus aureus [3] it was 0.5 mg/L (≈ 1.19 µM); in [4], 1 mg/L (≈ 2.38 µM); in series [5] it was 1 mg/L (≈ 2.38 µM); in [6], 4 mg/L (≈ 9.51 µM). Besides, the MIC stood at 8 mg/L (≈ 19 µM) in the series on Streptococcus pneumoniae [7]; 8 mg/L (≈ 19 µM) against Streptococcus pneumoniae [8]; 4 mg/L (≈ 9.51 µM) in the series on Enterococcus faecalis [9]; 4 mg/L (≈ 9.51 µM) with Enterococcus faecalis [10]; 16 mg/L (≈ 38.1 µM) against Streptococcus pyogenes; 1 mg/L (≈ 2.38 µM) against Escherichia coli [11]. For the same molecule, the minimal inhibitory concentration (MIC) in the series on Escherichia coli [12] is more than 128 mg/L; against Klebsiella pneumoniae it was 16 mg/L (≈ 38.1 µM); against Pseudomonas aeruginosa, 8 mg/L (≈ 19 µM); with Shigella sonnei, 1 mg/L (≈ 2.38 µM); in the series on Salmonella typhi, 1 mg/L (≈ 2.38 µM); in the series with Enterobacter cloacae it was 32 mg/L (≈ 76.1 µM). Moreover, the MIC in series [13] is 2 mg/L (≈ 4.76 µM); against Klebsiella aerogenes it was 1 mg/L (≈ 2.38 µM); in the series on Serratia marcescens, 4 mg/L (≈ 9.51 µM); in the series on Morganella morganii it was 1 mg/L (≈ 2.38 µM); with Providencia rettgeri, 8 mg/L (≈ 19 µM); against Proteus vulgaris it was 4 mg/L (≈ 9.51 µM).

Turning to `O=C(O)c1cn(C2CC2)c2cc(N3CCNCC3)c(F)cc2c1=O` [CIPROFLOXACIN], the MIC amounted to 0.25 mg/L (≈ 0.754 µM) with Staphylococcus aureus [1]; 4 mg/L (≈ 12.1 µM) in the series on Staphylococcus aureus [3]; 0.25 mg/L (≈ 0.754 µM) in [4]; 2 mg/L (≈ 6.04 µM) in series [5]; 0.25 mg/L (≈ 0.754 µM) in [6]; 1 mg/L (≈ 3.02 µM) in the series with Streptococcus pneumoniae [7]. Moreover, the MIC against Streptococcus pneumoniae [8] was 1 mg/L (≈ 3.02 µM); in the series with Enterococcus faecalis [9], 0.5 mg/L (≈ 1.51 µM); against Enterococcus faecalis [10], 1 mg/L (≈ 3.02 µM); with Streptococcus pyogenes, 1 mg/L (≈ 3.02 µM); against Escherichia coli [11], not above 0.03 mg/L; in the series on Escherichia coli [12], 128 mg/L (≈ 386 µM). In addition, the MIC in the series on Klebsiella pneumoniae was 0.5 mg/L (≈ 1.51 µM); against Pseudomonas aeruginosa, 16 mg/L (≈ 48.3 µM); in the series on Shigella sonnei, not above 0.03 mg/L; in the series with Salmonella typhi it was not above 0.03 mg/L; in [13], 1 mg/L (≈ 3.02 µM); in the series with Klebsiella aerogenes, not above 0.03 mg/L. In addition, the MIC is 0.25 mg/L (≈ 0.754 µM) with Serratia marcescens, not above 0.03 mg/L in the series with Morganella morganii, not above 0.03 mg/L against Providencia rettgeri and not above 0.03 mg/L against Proteus vulgaris.
